Source: US20230390267A1, “TREATMENT REGIMENS FOR EARLY IDIOPATHIC PARKINSON'S DISEASE” (BIAL - PORTELA & CA., S.A., priority 2020, published 2023)
Like-named read-outs stand apart in the source and are kept apart here.

Key:
[1] = system: patients with early idiopathic Parkinson's disease treated with levodopa/DDCI, with no signs of motor complications; conditions: human, in vivo, 24 weeks
Description: (§1) The term “treatment-emergent adverse event” is defined as any event not present before exposure to the study drug or any event already present that worsens in either intensity or frequency after first intake of study drug until 2 weeks after last intake of the study drug.
(§2) The factors evaluated include: • Treatment-emergent adverse events (TEAEs) including serious adverse events (SAEs) • Laboratory safety tests (biochemistry, hematology, coagulation and urinalysis) • Physical and neurological examinations • Vital signs • 12-lead ECG readings • Columbia-Suicide Severity Rating Scale (C-SSRS) • Modified Minnesota Impulsive Disorders Interview (mMIDI)

[2] = system: PD patients with motor fluctuations; conditions: cited from earlier work; for mean treatment effect versus placebo on absolute daily OFF-time: double-blind
[3] = system: PD patients with motor fluctuations (Japanese population); conditions: p<0.05, cited from earlier work
[4] = system: PD patients with motor fluctuations; conditions: cited from earlier work
[5] = system: patients who switched from entacapone to opicapone or had lack of efficacy or adverse events with entacapone; conditions: patients who continued with opicapone beyond 6 months; cited from earlier work
[6] = system: PD patients with motor fluctuations; conditions: cited from earlier work; remark: listed apart in the source
[7] = system: PD patients with motor fluctuations; conditions: cited from earlier work; remark: listed apart in the source
[8] = cited from earlier work
[9] = adjunct opicapone to levodopa/benserazide, cited from earlier work
[10] = oral opicapone with levodopa; evident 24 hours after drug administration; cited from earlier work
S-COMT = conditions: peripheral tissues; cited from earlier work
[11] = system: MPTP treated parkinsonian primates; conditions: in vivo; cited from earlier work
[12] = system: patients with early idiopathic Parkinson's disease treated with levodopa/DDCI, with no signs of motor complications; assay: EPSILON Phase III study, safety (treatment emergent adverse events)
Description: as §1, §2

For `Cc1c(Cl)c(C)[n+]([O-])c(Cl)c1-c1noc(-c2cc(O)c(O)c([N+](=O)[O-])c2)n1` [opicapone, 2,5-dichloro-3-[5-(3,4-dihydroxy-5-nitrophenyl)-1,2,4-oxadiazol-3-yl]-4,6-dimethylpyridine 1-oxide], the “TEAE COVID-19; %” value [1] is listed as “(8.5) %”, the “TEAE COVID-19; n” value [1] is listed as 15 and the “OFF-time change from baseline at the end of the open-label phase” value ([2]; group that switched from placebo to opicapone) is listed as 114.7 min. The “mean treatment effect versus placebo on absolute daily OFF-time” value ([2]; opicapone 25 mg, p=0.0106) was -35.1 min, the “OFF-time change from baseline at the end of the open-label phase” value ([2]; opicapone 50 mg throughout double-blind and open-label treatment) was -141.1 min and the “mean treatment effect versus placebo on absolute daily OFF-time” value ([2]; opicapone 50 mg, p<0.0001) was -58.1 min. The “placebo-adjusted reduction of OFF time” value ([2]; opicapone 50 mg, onset of motor fluctuations within the previous 2 years, p=0.0003) was -68.5 min, the “placebo-adjusted mean reduction of OFF time” value ([2]; opicapone 50 mg, patients only taking levodopa at baseline, p=0.02) was -65.6 min and the “placebo-adjusted reduction of OFF time” value ([2]; opicapone 50 mg, patients taking less than 600 mg of levodopa per day, p=0.0005) was -75.5 min. The “placebo adjusted reduction in OFF time” value ([3]; opicapone 25 mg dose group) was -0.74 h, the “placebo adjusted reduction in OFF time” value ([3]; opicapone 50 mg dose) was -0.62 h and the “treatment difference in OFF time for opicapone 50 mg versus entacapone” value ([4]; p=0.05) was 26.2 min. For the same compound, the “additional OFF-time reduction after switch from entacapone” value ([4]; patients that ended open-label with opicapone 50 mg) was 68 min, the “mean reduction in OFF time measured by interview” value [5] was −2 hours per day and the “patients who reported they were improved” value ([6]; 3 months) was 76.9%. The “patients judged as having worsened” value ([6]; UK patients (n=95), 6 months) was 6.4%, the “patients judged as improved since commencing treatment” value ([6]; UK patients (n=95), 6 months) was 85.3% and the “patients judged as showing 'no change'” value ([6]; UK patients (n=95), 6 months) was 8.4%. The patients much improved ([6]; UK patients (n=95), 6 months) was 49.4%, the “patients very much improved” value ([6]; UK patients (n=95), 6 months) was 8.4% and the “patients reported as much or very much improved (CGI-C)” value ([6]; opicapone 50 mg, 3 months) was 43%. The “patients showing clinical improvement as judged by the investigators (CGI-C)” value ([6]; opicapone 50 mg, 3 months) was 71.3%, the “improvement in UPDRS ADL score” value ([6]; opicapone adjunct therapy) was 3.0 points and the “improvement in UPDRS motor score” value ([6]; opicapone adjunct therapy) was 4.6 points. The “mean±SD improvement in NMSS sleep/fatigue score versus baseline” value ([6]; p<0.0001) was −1.3+6.3 points, the “mean±SD improvement in NMSS total score versus baseline” value ([6]; p<0.0001) was −6.8±19.7 points and the “mean improvement in NMSS total score” value ([7]; 1-year open-label endpoint) was −4.2. For the same compound, the “change in NMSS sleep/fatigue score” value ([7]; opicapone 50 mg dose, vs −0.5 with placebo) was −1.2 points, the “increase of minimum plasma concentration (Cmin) for individual levodopa doses” value ([8]; human, in vivo) was “up to 2.6 fold” and the “effect on levodopa systemic exposure and peak-to-trough fluctuations” value ([8]; once daily opicapone 50 mg, levodopa given every 3 and 4 hours) was “increased systemic exposure to levodopa”. For the same compound, the “increase of levodopa systemic exposure” value ([9]; Cmax not changed) was 2 fold, the “reduction of 3-O-methyldopa (3-OMD) exposure and Cmax” value [9] was “up to 7 fold” and the brain levodopa levels [10] was “sustained increase in brain levodopa levels”. The “binding affinity to S-COMT” value (S-COMT) was “sub-picomolar”, the “motor function in MPTP treated parkinsonian primates” value [11] was “improvement in motor function” and the “Any Serious TEAE; %” value ([12]; double blind phase, N = 177) was “(5.1) %”. The “Any Serious TEAE; n” value ([12]; double blind phase, N = 177) was 9, the “Any TEAE by Maximum Severity: Mild; %” value ([12]; double blind phase, N = 177) was “(29.9) %” and the “Any TEAE by Maximum Severity: Mild; n” value ([12]; double blind phase, N = 177) was 53. The “Any TEAE by Maximum Severity: Moderate; %” value ([12]; double blind phase, N = 177) was “(14.1) %”, the “Any TEAE by Maximum Severity: Moderate; n” value ([12]; double blind phase, N = 177) was 25 and the “Any TEAE by Maximum Severity: Severe; %” value ([12]; double blind phase, N = 177) was “(3.4) %”. For the same compound, the “Any TEAE by Maximum Severity: Severe; n” value ([12]; double blind phase, N = 177) was 6, the “Any TEAE by Worst Relationship: Definitely Related; %” value ([12]; double blind phase, N = 177) was “(1.1) %” and the “Any TEAE by Worst Relationship: Definitely Related; n” value ([12]; double blind phase, N = 177) was 2. The “Any TEAE by Worst Relationship: Not Related (first line, total incl. Unlikely Related); %” value ([12]; double blind phase, N = 177) was “(37.3) %”, the “Any TEAE by Worst Relationship: Not Related (first line, total incl. Unlikely Related); n” value ([12]; double blind phase, N = 177) was 66 and the “Any TEAE by Worst Relationship: Not Related (second line, sub-category); %” value ([12]; double blind phase, N = 177) was “(36.2) %”. For the same compound, the “Any TEAE by Worst Relationship: Not Related (second line, sub-category); n” value ([12]; double blind phase, N = 177) was 64, the “Any TEAE by Worst Relationship: Possibly Related; %” value ([12]; double blind phase, N = 177) was “(5.6) %” and the “Any TEAE by Worst Relationship: Possibly Related; n” value ([12]; double blind phase, N = 177) was 10. The “Any TEAE by Worst Relationship: Probably Related; %” value ([12]; double blind phase, N = 177) was “(3.4) %”, the “Any TEAE by Worst Relationship: Probably Related; n” value ([12]; double blind phase, N = 177) was 6 and the “Any TEAE by Worst Relationship: Related; %” value ([12]; double blind phase, N = 177) was “(10.2) %”. The “Any TEAE by Worst Relationship: Related; n” value ([12]; double blind phase, N = 177) was 18, the “Any TEAE by Worst Relationship: Unlikely Related; %” value ([12]; double blind phase, N = 177) was “(1.1) %” and the “Any TEAE by Worst Relationship: Unlikely Related; n” value ([12]; double blind phase, N = 177) was 2. The “Any TEAE leading to Death; %” value ([12]; double blind phase, N = 177) was “(0.6) %”, the “Any TEAE leading to Death; n” value ([12]; double blind phase, N = 177) was 1 and the “Any TEAE leading to IMP interruption; %” value ([12]; double blind phase, N = 177) was “(0.6) %”. The “Any TEAE leading to IMP interruption; n” value ([12]; double blind phase, N = 177) was 1, the “Any TEAE leading to Withdrawal; %” value ([12]; double blind phase, N = 177) was “(1.1) %” and the “Any TEAE leading to Withdrawal; n” value ([12]; double blind phase, N = 177) was 2. For the same compound, the “Any TEAE; %” value ([12]; double blind phase, N = 177) was “(47.5) %”, the “Any TEAE; n” value ([12]; double blind phase, N = 177) was 84 and the “TEAE Arthralgia; %” value ([12]; double blind phase, N = 177) was “(2.3) %”. The “TEAE Arthralgia; n” value ([12]; double blind phase, N = 177) was 4, the “TEAE Back pain; %” value ([12]; double blind phase, N = 177) was “(4.5) %” and the “TEAE Back pain; n” value ([12]; double blind phase, N = 177) was 8. For the same compound, the “TEAE Dizziness; %” value ([12]; double blind phase, N = 177) was “(1.1) %”, the “TEAE Dizziness; n” value ([12]; double blind phase, N = 177) was 2 and the “TEAE Dyskinesia; %” value ([12]; double blind phase, N = 177) was “(1.7) %”. For the same compound, the “TEAE Dyskinesia; n” value ([12]; double blind phase, N = 177) was 3, the “TEAE Fall; %” value ([12]; double blind phase, N = 177) was “(2.3) %” and the “TEAE Fall; n” value ([12]; double blind phase, N = 177) was 4. The “TEAE Fatigue; %” value ([12]; double blind phase, N = 177) was “(2.8) %”, the “TEAE Fatigue; n” value ([12]; double blind phase, N = 177) was 5 and the “TEAE Gastrointestinal disorders; %” value ([12]; double blind phase, N = 177) was “(6.8) %”. For the same compound, the “TEAE Gastrointestinal disorders; n” value ([12]; double blind phase, N = 177) was 12, the “TEAE General disorders; %” value ([12]; double blind phase, N = 177) was “(7.9) %” and the “TEAE General disorders; n” value ([12]; double blind phase, N = 177) was 14. For the same compound, the “TEAE Headache; %” value ([12]; double blind phase, N = 177) was “(0.6) %”, the “TEAE Headache; n” value ([12]; double blind phase, N = 177) was 1 and the “TEAE Hypertension; %” value ([12]; double blind phase, N = 177) was “(2.8) %”. For the same compound, the “TEAE Hypertension; n” value ([12]; double blind phase, N = 177) was 5, the “TEAE Infections and Infestations; %” value ([12]; double blind phase, N = 177) was “(15.8) %” and the “TEAE Infections and Infestations; n” value ([12]; double blind phase, N = 177) was 28. For the same compound, the “TEAE Injury, poisoning and procedural complications; %” value ([12]; double blind phase, N = 177) was “(3.4) %”, the “TEAE Injury, poisoning and procedural complications; n” value ([12]; double blind phase, N = 177) was 6 and the “TEAE Insomnia; %” value ([12]; double blind phase, N = 177) was “(2.3) %”. For the same compound, the “TEAE Insomnia; n” value ([12]; double blind phase, N = 177) was 4, the “TEAE Musculoskeletal and connective tissue disorders; %” value ([12]; double blind phase, N = 177) was “(10.2) %” and the “TEAE Musculoskeletal and connective tissue disorders; n” value ([12]; double blind phase, N = 177) was 18. The “TEAE Nausea; %” value ([12]; double blind phase, N = 177) was “(2.3) %”, the “TEAE Nausea; n” value ([12]; double blind phase, N = 177) was 4 and the “TEAE Nervous System Disorders; %” value ([12]; double blind phase, N = 177) was “(13.6) %”. The “TEAE Nervous System Disorders; n” value ([12]; double blind phase, N = 177) was 24, the “TEAE Oedema peripheral; %” value ([12]; double blind phase, N = 177) was “(2.3) %” and the “TEAE Oedema peripheral; n” value ([12]; double blind phase, N = 177) was 4. For the same compound, the “TEAE On and off phenomenon; %” value ([12]; double blind phase, N = 177) was “(4.5) %”, the “TEAE On and off phenomenon; n” value ([12]; double blind phase, N = 177) was 8 and the “TEAE Psychiatric disorders; %” value ([12]; double blind phase, N = 177) was “(7.9) %”. The “TEAE Psychiatric disorders; n” value ([12]; double blind phase, N = 177) was 14, the “TEAE Tremor; %” value ([12]; double blind phase, N = 177) was “(1.1) %” and the “TEAE Tremor; n” value ([12]; double blind phase, N = 177) was 2. The “TEAE Upper respiratory tract infection; %” value ([12]; double blind phase, N = 177) was “(0.6) %”, the “TEAE Upper respiratory tract infection; n” value ([12]; double blind phase, N = 177) was 1 and the “TEAE Urinary tract infection; %” value ([12]; double blind phase, N = 177) was “(2.3) %”. For the same compound, the “TEAE Urinary tract infection; n” value ([12]; double blind phase, N = 177) was 4, the “TEAE Vascular disorders; %” value ([12]; double blind phase, N = 177) was “(5.6) %” and the “TEAE Vascular disorders; n” value ([12]; double blind phase, N = 177) was 10. For the same compound, the “TEAE Vomiting; %” value ([12]; double blind phase, N = 177) was “(1.7) %”, the “TEAE Vomiting; n” value ([12]; double blind phase, N = 177) was 3 and the “increase in treatment emergent adverse events including nervous system disorders such as dyskinesia” value ([12]; opicapone-treated patients vs placebo) was “no increase”. The tolerability ([12]; patients without clinically diagnosed motor complications) was “well tolerated”.
